The target in experiment [1] is Baculoviral IAP repeat-containing protein 2 (Homo sapiens, UniProt Q13490). The experiment can be described thus: Binding affinity to cIAP1 BIR3 domain by fluorescence polarization assay. (Polarisation of emitted light reports the rotation of a fluorescent probe.)
Experiment [2] addresses T1, E3 ubiquitin-protein ligase XIAP (Homo sapiens, UniProt P98170). The experiment can be described thus: Antagonist activity at XIAP BIR3 domain assessed as restoration of caspase 9 activity by caspase-Glo 9 assay. The format is functional.
Another experiment concerns MDA-MB-231. In words: Cytotoxicity against human MDA-MB-231 cells after 4 days by WST-8 assay. The note with it: MDA-MB-231, 96 h. In general terms: Tetrazolium assays rely on reduction of a dye to a coloured formazan, in cell work by metabolically active cells.
The next experiment concerns SK-OV-3. In words: Cytotoxicity against human SKOV3 cells after 4 days by WST-8 assay. The note with it: SK-OV-3, 96 h.
Experiment [3] has as its target T1, E3 ubiquitin-protein ligase XIAP. The experiment can be described thus: Binding affinity to XIAP linker BIR2-BIR3 domain site 2 by fluorescence polarization assay.
Experiment [4] has the same target. In words: Binding affinity to XIAP linker BIR2-BIR3 domain site 1 by fluorescence polarization assay.

T1 sequence (P98170 whole entry, the tested form may be a part): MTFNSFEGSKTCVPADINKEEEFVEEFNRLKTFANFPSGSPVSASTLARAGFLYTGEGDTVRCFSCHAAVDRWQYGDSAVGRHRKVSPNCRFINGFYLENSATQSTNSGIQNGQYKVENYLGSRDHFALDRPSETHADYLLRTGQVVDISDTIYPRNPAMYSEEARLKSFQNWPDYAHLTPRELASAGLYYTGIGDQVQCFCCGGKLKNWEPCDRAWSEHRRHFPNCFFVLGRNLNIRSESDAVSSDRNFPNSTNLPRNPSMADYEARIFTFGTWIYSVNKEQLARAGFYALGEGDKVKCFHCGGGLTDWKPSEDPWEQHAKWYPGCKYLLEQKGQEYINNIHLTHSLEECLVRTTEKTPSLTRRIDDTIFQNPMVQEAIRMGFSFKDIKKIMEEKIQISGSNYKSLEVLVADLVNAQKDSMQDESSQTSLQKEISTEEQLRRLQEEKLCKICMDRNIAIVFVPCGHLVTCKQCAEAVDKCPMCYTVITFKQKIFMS
Baculoviral IAP repeat-containing protein 2, sequence (Q13490 whole entry, the tested form may be a part): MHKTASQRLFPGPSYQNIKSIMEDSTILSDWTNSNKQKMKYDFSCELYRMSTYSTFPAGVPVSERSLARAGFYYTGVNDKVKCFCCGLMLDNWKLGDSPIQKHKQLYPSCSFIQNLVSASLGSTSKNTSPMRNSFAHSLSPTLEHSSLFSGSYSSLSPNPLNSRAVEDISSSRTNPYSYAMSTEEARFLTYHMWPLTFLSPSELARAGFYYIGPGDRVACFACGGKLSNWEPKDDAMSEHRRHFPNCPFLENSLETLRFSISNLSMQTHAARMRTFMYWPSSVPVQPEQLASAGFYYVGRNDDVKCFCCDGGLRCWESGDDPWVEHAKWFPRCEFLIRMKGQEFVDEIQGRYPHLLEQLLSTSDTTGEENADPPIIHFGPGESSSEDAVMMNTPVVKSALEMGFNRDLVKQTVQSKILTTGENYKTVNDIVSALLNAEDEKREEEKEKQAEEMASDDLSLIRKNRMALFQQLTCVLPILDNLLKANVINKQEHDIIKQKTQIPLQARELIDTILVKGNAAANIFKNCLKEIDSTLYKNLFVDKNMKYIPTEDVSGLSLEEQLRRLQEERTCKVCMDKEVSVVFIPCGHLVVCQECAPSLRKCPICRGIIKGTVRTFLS

What is called Ki is the equilibrium dissociation constant of an inhibitor or competing ligand from its target. The low end stands for a stronger hold on the target, the high end for a looser hold on the target. What is called IC50 is the concentration at which inhibition is half-maximal. A lower IC50 goes with inhibition by little substance. `CN[C@@H](C)C(=O)N[C@H]1CCCCn2cc(nn2)[C@H](Cc2ccccc2)NC(=O)[C@@H]2CCCN2C(=O)[C@@H](NC(=O)[C@H](C)NC)CCCCn2cc(nn2)[C@H](Cc2ccccc2)NC(=O)[C@@H]2CCCN2C1=O` had a Ki in experiment [1] of 161 nM. Also, the Activity entry in experiment [2] was “Dose-dependent effect”. For the same compound, the IC50 in the experiment on MDA-MB-231 was found to be 25900 nM; in the experiment with SK-OV-3, 31500 nM.

`CN[C@@H](C)C(=O)N[C@H]1CCCNC(=O)[C@H](Cc2ccccc2)NC(=O)[C@@H]2CCCN2C(=O)[C@@H](NC(=O)[C@H](C)NC)CCCNC(=O)[C@H](Cc2ccccc2)NC(=O)[C@@H]2CCCN2C1=O`: the IC50 is 481 nM in experiment [3], 4600 nM in the experiment on MDA-MB-231, 15900 nM in the experiment with SK-OV-3 and 1 nM in experiment [4]. The inhibition constant (Ki) in experiment [1] came to 84 nM. Also, the Activity result in experiment [2] is “Dose-dependent effect”.

`CN[C@@H](C)C(=O)N[C@H]1CCCCn2cc(nn2)[C@H](c2ccccc2)NC(=O)[C@@H]2CCCN2C(=O)[C@@H](NC(=O)[C@H](C)NC)CCCCn2cc(nn2)[C@H](c2ccccc2)NC(=O)[C@@H]2CCCN2C1=O`: in experiment [2], the Activity entry is “Dose-dependent effect”.

For the origin of these results see ChEMBL document CHEMBL1157823, “Cyclopeptide Smac mimetics as antagonists of IAP proteins” (Bioorg Med Chem Lett, 2010).
